Assay [1] is described as follows: NIH-3T3 fibroblast cytotoxicity, dose response, cytotoxicity control, cell-based, fluorescence, Alamar Blue, secondary assay (AID 2327).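 Further: NIH-3T3 mouse fibroblasts cultured with fluconazole at 8 µg/mL.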 The assay is classed as functional. Background: The colour change of resazurin is a common sign of viable cells or microbes.
Assay [2] is described as follows: insulin promoter down-regulators in MIN6 cells, imaging, high-content screening, mouse beta cells (AID 1628). The assay is classed as functional.
Assay [3] in a line: cells. The assay is classed as functional, cell-based.
The nature of assay [4]: cytotoxicity in MIN6 insulinoma cells, dose response, cytotoxicity control, cell-based, mouse insulinoma (AID 2122).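 Further: confirmatory high-throughput counterscreen run to flag cytotoxic compounds; mouse MIN-6 beta cells carrying an insulin promoter eGFP reporter.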 The assay is classed as functional.
Assay [5] is described as follows: C. albicans growth with fluconazole, confirmation, fluorescence, retest (AID 2467). In kind it is functional, cell-based.
A short description of assay [6]: inhibitors of intracellular T. cruzi replication, confirmation, NIH3T3 host cells, beta-gal luminescence (AID 2044).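 Further: intracellular parasites grown in NIH/3T3 mouse fibroblasts as host cells; luminescent beta-galactosidase reporter signal from transgenic T. cruzi replicating inside host cells; inhibitors lower the luminescence signal.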 In kind it is functional, cell-based.
The nature of assay [7]: cells. In kind it is functional, cell-based. This is another data set of the same source.
A short description of assay [8]: cytotoxicity toward NIH3T3 fibroblasts, dose response, counter-screen, cell-based, ATP luminescence, mouse fibroblasts (AID 2010).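 Further: cells exposed to compound for about 90 hours before reading.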 In kind it is functional. On the technique in general: Counterscreens check selectivity or assay interference.
For assay [9], the target named is Intestinal-type alkaline phosphatase (Mus musculus, UniProt P24822). As to the kind of experiment: PubChem AID 488874. In kind it is functional.
Chain of Intestinal-type alkaline phosphatase (Mus musculus, UniProt P24822) (P24822 whole entry): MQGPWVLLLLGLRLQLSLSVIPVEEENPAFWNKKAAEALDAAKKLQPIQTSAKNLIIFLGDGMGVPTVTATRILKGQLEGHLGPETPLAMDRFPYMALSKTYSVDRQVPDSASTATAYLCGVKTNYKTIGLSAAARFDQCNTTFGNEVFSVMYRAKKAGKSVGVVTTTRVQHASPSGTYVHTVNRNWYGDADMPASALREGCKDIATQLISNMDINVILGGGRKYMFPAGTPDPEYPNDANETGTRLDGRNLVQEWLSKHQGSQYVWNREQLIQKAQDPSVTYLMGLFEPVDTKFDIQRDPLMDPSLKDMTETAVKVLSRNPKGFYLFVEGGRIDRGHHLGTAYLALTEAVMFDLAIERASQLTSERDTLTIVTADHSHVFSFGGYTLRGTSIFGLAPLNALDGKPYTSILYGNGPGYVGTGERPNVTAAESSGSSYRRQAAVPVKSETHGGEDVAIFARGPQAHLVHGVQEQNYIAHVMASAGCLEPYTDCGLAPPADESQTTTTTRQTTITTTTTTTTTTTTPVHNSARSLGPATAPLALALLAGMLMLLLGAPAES
In assay [10] the target is T1, Intestinal-type alkaline phosphatase (Homo sapiens, UniProt P09923). As to the kind of experiment: human intestinal alkaline phosphatase activators, dose response, biochemical, luminescence, uHTS hits (AID 463120). The assay is classed as functional.
T1 sequence (P09923 whole entry): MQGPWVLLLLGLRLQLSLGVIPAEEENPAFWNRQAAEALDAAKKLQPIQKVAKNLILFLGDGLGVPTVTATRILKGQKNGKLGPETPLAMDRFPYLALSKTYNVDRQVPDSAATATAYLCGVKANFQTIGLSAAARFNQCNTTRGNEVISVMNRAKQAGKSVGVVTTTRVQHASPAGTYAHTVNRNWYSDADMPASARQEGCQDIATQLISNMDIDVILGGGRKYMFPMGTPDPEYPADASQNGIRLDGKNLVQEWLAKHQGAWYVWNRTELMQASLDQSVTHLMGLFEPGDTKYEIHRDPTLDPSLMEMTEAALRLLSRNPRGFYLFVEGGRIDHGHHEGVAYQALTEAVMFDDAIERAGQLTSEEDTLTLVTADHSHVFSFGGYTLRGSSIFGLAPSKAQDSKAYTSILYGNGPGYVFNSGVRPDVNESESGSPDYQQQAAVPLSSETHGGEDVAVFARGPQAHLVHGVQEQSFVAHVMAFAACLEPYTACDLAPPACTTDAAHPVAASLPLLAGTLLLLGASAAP
Assay [11] has as its target T1, Intestinal-type alkaline phosphatase. As to the kind of experiment: human IAP activators, dose response, biochemical, luminescent, uHTS hits, set 2 (AID 488817).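 Further: potency of activators that raise enzyme activity.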 In kind it is functional.
In assay [12] the target is T2, Alkaline phosphatase, tissue-nonspecific isozyme (Homo sapiens, UniProt P05186).
T2 sequence (P05186 whole entry): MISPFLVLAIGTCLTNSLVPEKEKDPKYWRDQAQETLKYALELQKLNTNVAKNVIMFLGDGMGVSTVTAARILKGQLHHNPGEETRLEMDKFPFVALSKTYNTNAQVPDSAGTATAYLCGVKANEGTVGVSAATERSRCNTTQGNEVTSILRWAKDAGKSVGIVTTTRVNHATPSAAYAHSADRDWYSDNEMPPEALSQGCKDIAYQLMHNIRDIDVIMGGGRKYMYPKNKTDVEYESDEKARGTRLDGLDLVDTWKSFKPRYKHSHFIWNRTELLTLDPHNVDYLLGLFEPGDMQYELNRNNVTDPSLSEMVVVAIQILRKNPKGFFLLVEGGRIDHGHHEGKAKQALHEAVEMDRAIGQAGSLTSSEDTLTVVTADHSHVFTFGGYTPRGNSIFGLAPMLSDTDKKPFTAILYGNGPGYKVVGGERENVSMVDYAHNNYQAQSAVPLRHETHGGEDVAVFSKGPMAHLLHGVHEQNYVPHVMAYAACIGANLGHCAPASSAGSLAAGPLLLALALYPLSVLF
As to the kind of experiment: TNAP enzyme activators, dose response, selectivity assay for human IAP activator project, biochemical, TNAP isozyme, human IAP uHTS hits (AID 488886).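 Further: potency of compounds raising TNAP activity as a selectivity check on IAP activators.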 The assay is classed as functional.

The subject of another assay is INS1. Kind of assay: beta cell apoptosis inhibitors, cytokine rescue, dose response, luminescence, retest (AID 449756).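 Further: cell death triggered by IL-1 beta plus TNF-alpha plus IFN-gamma mixture; protective hits raise ATP signal compared with cytokine alone wells.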 The assay is classed as functional, cell-based. The note with it: Rattus norvegicus.
Assay [13] is described as follows: luciferase reporter signal reduction – luminescence, H4-C neuroglioblastoma cells, dose response (AID 2458).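 Further: H4 neuroglioblastoma cells stably carrying a luciferase reporter gene fusion.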 In kind it is functional, cell-based.
In assay [14] the test system is Streptococcus sp. 'group A'. As to the kind of experiment: growth inhibition of control SK(-) GAS strain, dose response, counter-screen for streptokinase expression inhibitor project, luminescence, kanamycin, BacTiterGlo, confirmation (AID 1900). The assay is classed as functional, organism-based.
Assay [15] can be described thus: cells. The assay is classed as functional, cell-based. This is another data set of the same source.
The nature of assay [16]: inhibitors of SNCA 5'UTR-driven reporter translation, confirmation, H4 neuroglioma cells, luminescence (AID 1988). In kind it is functional, cell-based.
In a further assay the target is T3, Streptokinase A (Streptococcus pyogenes serotype M1, UniProt P10520).
T3 sequence (P10520 whole entry): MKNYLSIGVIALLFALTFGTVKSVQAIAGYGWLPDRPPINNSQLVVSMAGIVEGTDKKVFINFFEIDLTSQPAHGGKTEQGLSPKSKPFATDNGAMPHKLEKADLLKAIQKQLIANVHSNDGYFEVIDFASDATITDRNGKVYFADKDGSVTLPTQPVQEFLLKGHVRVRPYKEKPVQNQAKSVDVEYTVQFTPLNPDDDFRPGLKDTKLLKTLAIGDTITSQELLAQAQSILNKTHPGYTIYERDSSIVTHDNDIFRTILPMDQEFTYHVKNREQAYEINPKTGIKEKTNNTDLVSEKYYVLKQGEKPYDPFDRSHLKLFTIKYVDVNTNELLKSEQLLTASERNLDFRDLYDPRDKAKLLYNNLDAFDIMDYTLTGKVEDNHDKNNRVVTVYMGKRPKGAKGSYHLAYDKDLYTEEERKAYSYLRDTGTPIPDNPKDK
As to the kind of experiment: S. pyogenes streptokinase expression inhibitors, potency, dose response, plasminogen activation absorbance, OD405 (AID 1914).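 Further: secreted streptokinase activity via plasminogen activation per viability signal from cell pellet.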 The assay is classed as functional, Streptococcus pyogenes M1 GAS.

For a further assay, the system named is Streptococcus. As to the kind of experiment: Group A Streptococcus viability loss, dose response, counter-screen for streptokinase expression inhibitor project, luminescence, BacTiterGlo (AID 1915).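 Further: potency for reduction of bacterial viability or growth.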 In kind it is functional, organism-based.
A short description of assay [17]: inhibitors of SNCA 5'UTR-driven translation, confirmation, luminescence, H4 neuroglioblastoma cells, dose confirmation (AID 2454).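 Further: H4 neuroglioblastoma cells carrying an alpha-synuclein 5'UTR luciferase reporter; potency for inhibition of the luciferase signal.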 The assay is classed as functional, cell-based.
A short description of assay [18]: cytotoxicity in HEK-293T cells, dose response, cytotoxicity control for TCR NF-kB inhibitor project, luminescence, T-cell screen hits (AID 489026).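 Further: cells exposed to compound about 14 hours before the viability readout.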 The assay is classed as functional, cell-based.

From ChEMBL document CHEMBL1201862, “PubChem BioAssay data set” (2004) come the findings set out here.

The source made the active and inactive calls. For most assays here, no stated cut-off is given here; in the data, actives have a measured EC50 and inactives only a lower limit.

As for `CCOc1ccc(/C=N/NC(=O)c2[nH]ncc2Br)c(O)c1`, the EC50 (in general, the midpoint of the concentration-response curve) was 14.9 µM (active) in [1]; 191 µM (active) in the assay “cells [3]”; > 38 µM (not active) in [5]; 1.48 µM (active) in assay [6]; 7.33 µM (active) in “cells [7]”; 10.3 µM (active) in assay [8]. The values for the EC50 in assay [10], in assay [11] and in [12] were 6.69 µM (active), 8.97 µM (active) and 11.5 µM (active), respectively. Further, the IC50 (commonly the midpoint of a concentration-inhibition curve) in [2] is 3.83 µM (active); in assay [4], 3.4 µM (active); in [9] it was 73.8 µM (active). The AC50 – broadly, the concentration at which the activity in the assay is half-maximal – in the assay with INS1 was 1.14 µM (active).
As to `Cc1c(C(=O)N/N=C/c2c(O)ccc3ccccc23)nnn1-c1nonc1N`, the EC50 is 0.898 µM (active) in [13]; 5.56 µM (active) in assay [14]; 0.958 µM (active) in the assay “cells [15]”; < 0.1 µM (active) in assay [16]; > 150 µM (not active) at Streptokinase A; > 150 µM (not active) with Streptococcus. Also, the EC50 was 0.953 µM (active) in assay [17], 7.47 µM (active) in [10], 8.92 µM (active) in [11] and 8.59 µM (active) in [12]. The IC50 was 95.2 µM (active) in assay [9] and > 80 µM (inactive) in assay [18]. The AC50 with INS1 is 0.317 µM (active).
